# Results as given in patent US6892140B1, “Immunogenic cancer peptides and uses thereof” (Enteron, Inc., priority 2000, dated 2005).
# Entries after “also recorded” stand apart in the source; their conditions may differ. Ends that are not written are not given here.
# Columns and labels:
# [1] = system: serum IgG antibodies from patients with squamous cell carcinoma and from controls; assay: Immunoassay 2: serum IgG specific for biotinylated peptide antigens, squamous cell carcinoma patients vs persons not known to have cancer; assay type: binding, human; settings: for sera from squamous cell carcinoma patients with IgG antibody level above control mean background+2.5 SD: 45 squamous cell carcinoma sera; for sera from persons not known to have cancer: IgG antibody level relative to control mean background+2.5 SD: control population
# Method: Using immunoassay 2 (see Materials and Methods) the following results were obtained.
# Immunoassay Method 2: Used to Detect Serum IgA, IgD, IgE, IgG, and IgM Antibodies Specific for Individual Peptide Antigens
# NeutrAvidin^a conjugated paper disc, 6 mm.
# Serum diluent: 10 mM sodium phosphate, pH 7.20, with 150 MM sodium chloride, and 0.20 mg/mL sodium azide.
# NeutrAvidin^a coated white microtiter plate, stored in 10 mM Tris-HCl, pH 7.50, containing 600 mM sodium chloride and 0.2 mg/mL thimerosal.
# Plate blocking solution: 10 mM sodium phosphate, pH 7.20, containing 150 mM sodium chloride, 100 mg/mL Triton X-405, and 0.2 mg/mL thimerosal.
# Plate wash buffer: 20 mM Tris chloride, pH 7.4, containing 150 mM sodium chloride, 0.5 mg/mL Triton X-405 and 0.2 mg/mL thimerosal.
# (§1) Peptide solution: 0.06 μg/mL peptide dissolved in 20 mM Tris chloride, pH 7.4, containing 600 mM sodium chloride, 30 mg/mL polyethylene glycol 4000, 1 mM ethylenediaminetetraacetic acid, 1 mM ethylene glycol-bis(§-aminoethyl ether)N,N,N′,N′-tetraacetic acid, 0.5 mg/mL Triton X405 and 0.2 mg/mL thimerosal.
# as §1, with “Control peptide” for “Peptide”, “0.013” for “0.06”, “μg/mL control” for “μg/mL”, “X-405” for “X405”
# Conjugate solution: 0.100 μg/mL alkaline phosphatase conjugated polyclonal goat anti human IgG dissolved in 20 mM Tris-HCl, pH 7.40, with 600 mM sodium chloride, 30.0 mg/mL PEG-4000, 3.0 mg/mL BSA, 0.5 mg/mL Triton X-405 and 0.20 mg/mL thimerosal.
# Substrate solution: 25.2 μg/mL 4-methylumbelliferyl phosphate dissolved in 180 mM 2-amino-2-methyl-1-propanol, pH 9.50, containing 123 μM magnesium chloride.
# Serum preparation: • 1. Add 100 μL serum to 15 NeutrAvidin^a coated paper discs in a suitably sized test tube. • 2. Incubate with gentle mixing at ambient temperature for 16-20 hours. • 3. Add 7.900 mL of serum diluent and mix gently for 30 minutes. • 4. Vortex the tube gently to completely release the serum from the discs. • 5. Remove the treated serum from the discs and transfer it to a suitable storage tube. • 6. Store the treated serum at 4 EC.
# Assay procedure: • 1. Two days before assay, aspirate the storage solution from the NeutrAvidin^a coated white microtiter plate and add 200 μL plate blocking solution to each well. • 2. Cover the plate and incubate at ambient temperature for 16-20 hours. • 3. One day before assay. wash the blocked plate three times with plate wash buffer, approximately 275 μL per well per wash. […] Read the plate at 30 and 60 minutes in a fluorescence microtiter plate reader set at 365 nm excitation and 450 nm emission. […]
# [2] = system: antibodies in sera from prostate cancer patients; assay: Prostate cancer serum test of cell surface protein peptides (Table 3); assay type: binding, human; parameters: key: +: positive or negative reactivity between peptides representing modified peptide regions of cancer cell surface protein molecules with antibodies in sera from prostate cancer patients; −: positive or negative reactivity between peptides representing modified peptide regions of cancer cell surface protein molecules with antibodies in sera from prostate cancer patients; settings: reactivity of peptide with antibodies in sera from prostate cancer patients
# Source text: Table 3 third column illustrates the positive or negative reactivity between peptides representing modified peptide regions of cancer cell surface protein molecules with antibodies in sera from prostate cancer patients. The presence or absence in prostate cancer cells of the 41 tested molecules is shown as + or − in column four.
# Sixth, employing the immunoassays disclosed herein, each biotinylated peptide is screened as an antigen against sera or other relevant biological fluids containing antibodies taken from one of the following groups: cancer patients, patients with benign lesions or inflammatory conditions, and healthy subjects. Peptides can also be screened using tumor-infiltrating lymphocytes or peripheral blood-born lymphocytes from cancer patients. Candidate peptides we consider cancer-specific or cancer-associated depend on whether they fit the following definitions.
Substance,sera from squamous cell carcinoma patients with IgG antibody level above control mean background+2.5 SD [1],sera from persons not known to have cancer: IgG antibody level relative to control mean background+2.5 SD [1],Prostate Cancer Serum Test Result [2]
"rNvs: EGFR peptide (portion of SEQ ID NO: 67), deglycosylated asparagine N (RNVS; also: deglycosylated asparagine)",2 of 45,below the mean background+2.5 standard deviations; also recorded: below the mean background plus 4 standard deviations,
tkNgt: Tested peptide of cell surface protein desmoglein 1 (TKNGT; not fully specified),,,−
eyNts: Tested peptide of cell surface protein tgfr beta type II (EYNTS; not fully specified),,,+
knNht: Tested peptide of cell surface protein CD63 (KNNHT; also: biotin label at one end),,,−
diNss: Tested peptide of cell surface protein fgfr4 (DINSS; not fully specified),,,−
seNas: Tested peptide of cell surface protein integrin alpha 1 (SENAS; not fully specified),,,−
seNdt: Tested peptide of cell surface protein protein-tyrosine phosphatase PCP-2 (SENDT; not fully specified),,,−
kiNat: Tested peptide of cell surface protein desmoglein 2 (KINAT; also: biotin label at one end),,,−
saNrs: Tested peptide of cell surface protein CD66 (SANRS; not fully specified),,,+
NhSeg: Tested peptide of cell surface protein CD44 (NHSEG; not fully specified),,,+
drNhs: Tested peptide of cell surface protein integrin alpha 2 (DRNHS; not fully specified),,,−
"gdNrt: Tested peptide of cell surface protein protein-tyrosine phosphatase kappa (GDNRT; also: biotin label, end not given here)",,,−
teNqt: Tested peptide of cell surface protein integrin alpha (v) (TENQT; not fully specified),,,−
vgNks: Tested peptide of cell surface protein hepatocyte gfr (VGNKS; not fully specified),,,−
kaNtt: Tested peptide of cell surface protein integrin alpha (v) (KANTT; also: biotin label at one end),,,−
leNht: Tested peptide of cell surface protein integrin alpha 3 (LENHT; also: biotin label at one end),,,−
aemNgSk: TROP1 peptide with the amino acid sequence aemNgSk (AEMNGSK; not fully specified),6 of 45,one,
raNhs: Tested peptide of cell surface protein integrin alpha 6 (RANHS; not fully specified),,,−
pdNct: Tested peptide of cell surface protein erbB-4 (PDNCT; also: biotin label at one end),,,−
nkNvt: Tested peptide of cell surface protein integrin beta I (NKNVT; also: biotin label at one end),,,+
meNkt: Tested peptide of cell surface protein integrin alpha 3 (MENKT; also: biotin label at one end),,,+
esNrt: Tested peptide of cell surface protein fgfr1 (ESNRT; not fully specified),,,−
crNvs: Tested peptide of cell surface protein erbB-1 (CRNVS; not fully specified),,,−
